From patent publication US8748572B2, “RNase a peptides, fragments and uses thereof” (priority 2006, dated 2014)

B1: hPRI: human placental RNase inhibitor (Boehringer Mannheim) (protein)
chain: SLDIQSLDIQCEELSDARWAELLPLLQQCQVVRLDDCGLTEARCKDISSALRVNPALAELNLRSNELGDVGVHCVLQGLQTPSCKIQKLSLQNCCLTGAGCGVLSSTLRTLPTLQELHLSDNLLGDAGLQLLCEGLLDPQCRLEKLQLEYCSLSAASCEPLASVLRAKPDFKELTVSNNDINEAGVRVLCQGLKDSPCQLEALKLESCGVTSDNCRDLCGIVASKASLRELALGSNKLGDVGMAELCPGLLHPSSRLRTLWIWECGITAKGCGDLCRVLRAKESLKELSLAGNELGDEGARLLCETLLEPGCQLESLWVKSCSFTAACCSHFSSVLAQNRFLLELQISNNRLEDAGVRELCQGLGQPGSVLRVLWLADCDVSDSSCSSLAATLLANHSLRELDLSNNCLGDAGILQLVESVRQPGCLLEQLVLYDIYWSEEMEDRLQALEKDKPSLRVIS

Tests used:
isoelectric point = type: physicochemical
E. coli DH5α = assay: bactericidal colony-forming assay, E. coli; type: cell-based, Escherichia coli; conditions: free synthetic peptide; for LD99: E. coli
Experimental: FIGS. 5 A & B are graphs showing the bactericidal activity of rRNases A-1 and A-2. In panel (A) E. coli DH5α and in panel (B) S. aureus 502A were re-suspended in 100 mM sodium phosphate buffer, pH 7.4, and incubated with the indicated concentrations of chicken leukocyte RNase A-1 (open squares) and A-2 (closed circles) for 4 h at 37° C., plated on RNase-free LB agar, and grown overnight for colony counts.
RNase A polypeptides and fragments according to the invention that have bactericidal activity are particularly preferred for use in the treatment methods of the invention. The bactericidal and bacteriostatic activity of a particular RNase A polypeptides or fragments can be assessed by known protocols, such as that described in the methods section and the following described protocol, herein referred to as “a standard bacterial colony formation assay.” Bactericidal assays are well-described in the art, and are performed as described previously, and as exemplified in Examples 3-6. Briefly, an aliquot from a single bacterial colony overnight culture grown in Luria-Beitani (LB) broth is diluted 1:100 in sodium phosphate, pH 7.4, collected by centrifugation, and resuspended in sodium phosphate, pH 7.4. An aliquot of bacteria in buffer are incubated for 4 hr at 37° C. with recombinant protein or peptide at concentrations indicated, or diluent control and were then diluted 10, 100, or 1000-fold prior to plating on LB agar for overnight growth for colony counts.
Next, the bactericidal activity of chicken leukocyte RNases were examined using a colony-forming assay as previously described for eosinophil cationic protein [28]. […] E. coli was more susceptible to the bactericidal activity of leukocyte rRNase A-2 than was S. aureus, as 5 μM rRNase A-2 reduced the colony count of E. coli 10^7-fold, while reducing the colony count of S. aureus, only 100-fold. Recombinant RNase A-1 had no effect on colony number of E. coli or S. aureus concentrations up to and including […].
Bactericidal assays were performed as described previously with modifications. Briefly, 100 microliters from a single bacterial colony overnight culture grown in Luria-Bertani (LB) broth was diluted 1:100 in 100 mM sodium phosphate, pH 7.4, collected by centrifugation, and resuspended in 1 ml sodium phosphate, pH 7.4. Ten microliters of bacteria in buffer are incubated for 4 hr at 37° C. with 10 microliters recombinant protein or peptide at concentrations indicated, or diluent control and were then diluted 10, 100, or 1000-fold prior to plating on LB agar for overnight growth for colony counts. All points were determined in triplicate.

[1] = tested on: Salmonella enterica serovar pullorum; assay: bactericidal assay on natural pathogen; type: cell-based; conditions: free peptide
Description: FIG. 11 is a graph showing that the domain III peptide is bactericidal for S. enterica serovar pullorum which is a natural pathogen of domestic poultry. At the highest concentration tested, 100 micromolar, RNase A-2 domain III reduces the colony count from 100-1000 fold (2-3 logs).
The bactericidal actions of the A-2 domain sequences on natural pathogens was explored. The bactericidal activity of the leukocyte RNase A-2 domain III peptide on the natural pathogen Salmonella enterica serovar pullorum was determined using the bactericidal assays as previously described. S. enterica is a gram negative pathogen isolated initially from domestic poultry and is as such a natural target pathogen for a bactericidal agent isolated from chicken granulocytes. […] At the highest concentration tested, 100 micromolar, RNase A-2 domain III reduces the colony count from 100-1000 fold (2-3 logs). Thus, the A-2 domain sequences are useful bactericidal agents against natural pathogens.
Bactericidal assays were performed as described previously with modifications. Briefly, 100 microliters from a single bacterial colony overnight culture grown in Luria-Bertani (LB) broth was diluted 1:100 in 100 mM sodium phosphate, pH 7.4, collected by centrifugation, and resuspended in 1 ml sodium phosphate, pH 7.4. […] All points were determined in triplicate.

[2] = tested on: Gallus gallus leukocyte RNases; assay: RNase activity with human placental RNase inhibitor; type: biochemical; conditions: preincubation with 200 U hPRI, yeast tRNA substrate, pH 7.0
Experimental: FIGS. 4 A-D are graphs showing the ribonucleolytic activity of recombinant leukocyte RNases. (A) is a graph showing the optimum pH for RNase activity. Enzymatic activity was determined with 50 pmol rRNase A-1 (open squares) and rRNase A-2 (closed circles) that was incubated with 250 μg/ml yeast tRNA in 40 mM sodium phosphate buffer at the pHs indicated. Measurements of A260 per time were converted to pmol/s as described in reference 28 and Methods. (B) is a graph showing the initial rates for RNase activity. Enzymatic activity was determined as described in (A) with 40 mM sodium phosphate buffer, pH 7.0. (C) is a graph showing the substrate preference for RNase activity. […] A260 was measured after precipitation of undigested RNA at each of the time points indicated. […] RNase activity was measured with […] of bovine pancreatic RNase (left) or […] rRNase A-1 and rRNase A-2 (right) with 250 μg/ml of yeast tRNA as substrate with (+) or without (−) 200 U human placental RNase inhibitor (hPR1) in 40 mM sodium phosphate buffer, pH 7.0. […]
The ribonuclease (RNase) assay with yeast tRNA substrate has been described in detail elsewhere. […] In experiments in which the pH optimum was to be determined, 40 mM sodium phosphate buffers of pH 5.0, 5.5, 6.0, 6.5, 7.4 or 8.0 were used instead of the buffer of pH 7.0. […]

Molecule	isoelectric point (pI) (isoelectric point)	bactericidal activity of free peptide against E. coli (in words) (E. coli DH5α)	bactericidal activity (in words) [1]	LD99 (E. coli DH5α) [µM]	inhibition of RNase activity [2]
SYTGNQFNHRVRVGCWG [A-1 domain III]	9.9	no significant activity			
RYSGNQFNRRVRVGCRG [A-2 domain III peptide]	12.3	active	bactericidal	10	
TTRRHFRIT [A-2 domain II peptide]	12.8	reduced colony count of E. coli in a dose-dependent manner		200	
TRIRTRFHT [scrambled domain II peptide]		reduced the colony count of E. coli to the same degree as the wild type A-2 domain II peptide			
B1					completely inhibited
